According to PMC9466619, “Anti-cancer and immunomodulatory evaluation of new nicotinamide derivatives as potential VEGFR-2 inhibitors and apoptosis inducers: in vitro and in silico studies” (Journal of Enzyme Inhibition and Medicinal Chemistry, 2022):

Experiments:
HCT-116 = assay: MTT anti-proliferative assay, HCT-116; type: cell-based; settings: Homo sapiens, HCT-116 colorectal cancer cells, read-out: Cytotoxicity IC50 HCT-116
Procedure: [Worded in the source for another cell line; this cell line is reported under the same test.] (§1) MTT procedure[41]^,[42] was applied for the determination of the anti-proliferative activity as described in Supplementary data.
(§2) 3- 4.2. Experimental of biological testing
(§3) 4.2.1. In vitro anti-proliferative activity
(§4) The in vitro antiproliferative activities of the synthesized compounds were evaluated against two human tumor cell lines: hepatocellular carcinoma (HepG2) and breast cancer (MCF-7) using MTT assay protocol The commercially available […]
(§5) The tested cell lines were purchased and dropped on the appropriate growth medium. The growth medium was supplemented with […] of streptomycin, 100 units/mL of penicillin and 10% of heat-inactivated fetal bovine serum in a humidified 5% (v/v) CO2 atmosphere at 37 ◦C.
(§6) Then the cells from the two cancer cell lines were seeded at the appropriate densities into 96-well microtiter plates. After incubation for 24 h, the growth medium of each cell was treated with graded concentrations (0.1, 10, 100 and 1000 μM) of the test compounds and incubated for three days. The viability of treated cells was determined using 3-[4,5-dimethylthiazole-2-yl]- 2,5-diphenyltetrazolium bromide (MTT) technique as cells were stained with 5% MTT solution and allowed to break down the dye into colored-insoluble formazan crystals for 4 h. The formazan crystals were dissolved in acidified isopropanol for 30 min with continuous shaking at room temperature. The colorimetric assay was measured and recorded at absorbance of 570 nm. The cell viability was expressed as percentage of control and the concentration that […]
(§7) 100% viability and group treated with a mixture of toxic compounds as 0% viability.
(IC50) were determined for each compound using Graph Pad Prism version 5 software by plotting of log C against % viability.
(§8) 4.2.2. In vitro VEGFR-2 kinase assay
(§9) The synthesized compounds were estimated for their in vitro inhibition on human VEGFR-2 in HepG2 cell line; using ELISA kit. Firstly, a plate was used for the assay […]
nominated as a standard VEGFR-2 inhibitor. Both standard and samples were added to the wells and incubated overnight at 4 ◦C, then washed. The biotinylated antibody was supplemented and further incubated for 1 h at room temperature. The unreacted, […]

HepG-2 = assay: MTT anti-proliferative assay, HepG-2; type: cell-based; settings: Homo sapiens, HepG2, HepG-2 hepatocellular carcinoma cells, read-out: Cytotoxicity IC50 HepG-2
Procedure: as §1, §2, §3, §4, §5, §6, §7
(IC50) were determined for each compound using Graph Pad Prism version 5 software by plotting of log C against % viability. […]

TNF-α = assay: qRT-PCR level of TNF-α in HCT-116 cells; type: cell-based, human; settings: 24 h, compound 7 at 15.70 µM, compound 10 at […]
Procedure: (§10) Dexamethasone as a universal immunomodulatory drug was used as a reference molecule.
(§11) The effect of compounds 7 and 10 on the expression of TNF-α and IL-6 were determined using qRT-PCR as described in Supplementary data[48–50].
(§12) 4.2.5. Quantitative Real Time Reverse-Transcriptase PCR technique
(§13) The quantity of immunomodulatory proteins (TNF-α and IL-6) in control and compounds 7, 10 (at the IC50 concentration)-treated HepG2 cells was as sessed by qRT-PCR (reference). Total RNA from vehicle -treated control (0.01% DMSO) and […] HepG2 cells were extracted as -per the manufacturer instructi ons (RNeasy mini kit, Qiagen, Germany). After RNA extraction, cDNA was prepared using the Revert Aid First Strand cDNA Synthesis kit (Thermo Scientific, USA). Amplification of target cDNA for apoptosis markers and GAPDH [as a normalization (housekeeping) gene] was done using one-step RT-PCR SYBR® Green kit Master Mix (Bio‐Rad
(§14) Laboratories, USA) on Rotor -Gene Q real-time PCR thermal cycler instrument. cDNA (2 μl aliquots) was mixed with 1 μl of forward primer, 1 μl re verse primer, 10 μl master mixture, and the reaction volume was completed to 20 μl with nuclease -free water. All experiments were performed in tri plicates
(§15) 4- 4.3. Experimental of in silico studies

IL-6 = assay: qRT-PCR level of IL-6 in HCT-116 cells; type: cell-based, human; settings: 24 h, compound 7 at 15.70 µM, compound 10 at […]
Procedure: as §10, §11, §12, §13, §14, §15

human VEGFR-2 = target: T1, human VEGFR-2 (Homo sapiens, UniProt P35968); assay: In vitro VEGFR-2 enzyme inhibition assay (Human VEGFR-2 ELISA kit); type: biochemical
T1 construct: VEGFR-2 in HepG2 cell line; endogenous in cells; host or cells: HepG2
Procedure: as §2
4.2.1. In vitro anti-proliferative activity […]
The tested cell lines were purchased and dropped on the appropriate growth medium. The growth medium was supplemented with […] of streptomycin, 100 units/mL of penicillin and 10% of heat-inactivated fetal bovine serum in a humidified 5% (v/v) CO2 atmosphere at 37 ◦C. […]
as §8, §9
nominated as a standard VEGFR-2 inhibitor. Both standard and samples were added to the wells and incubated overnight at 4 ◦C, then washed. The biotinylated antibody was supplemented and further incubated for 1 h at room temperature. The unreacted, liberated antibody was then washed; followed by addition of HRP-conjugated streptavidin and incubated for 45 min at room temperature. Wells were washed and a TMB substrate solution was added and kept at room temperature for 30 min. Finally, the stop solution was added, and the intensity of the color produced was measured at […]

HCT-116 cells [1] = assay: Apoptosis assay, FITC-Annexin V/PI flow cytometry; type: cell-based, human; settings: 15.70 μM, 48 h
Procedure: To determine whether apoptosis induction is involved in the anti-proliferative effects of the synthesised compounds, the apoptosis assay was performed for compound 7 against HCT-116 cells. The cells were incubated with either vehicle or compound 7 at a concentration of 15.70 μM for 48 h and then stained with FITC-Annexin V and propidium iodide (PI). The percentages of apoptotic HCT-116 cells were determined by flow cytometry analysis.
Flow cytometry cell apoptosis analysis was used to investigate the apoptotic effect of compound 7 as described in Supplementary data[46]^,[47]. […]
4.2.4. Flow cytometry analysis for apoptosis
Flow cytometry cell apoptosis analysis was used to investigate the apoptotic […]
AnnexinV-fluorescein isothiocyanate (Annexin V-FITC) is a protein that has high affinity to phosphatidyl serine PS, which can be detected by staining with Annexin V-(FITC) and counter staining with propidium iodide (PI). In such procedure, HepG2 cells were incubated together with the tested compound […] for 24 h. Then, the cells were centrifuged, collected by trypsin, washed with PBS two successive times, and suspended in […] of binding buffer. The double staining Annexin V-FITC […] were added to the cells and incubated in the dark for 5 min at room temperature. The stained cells were analyzed for flow cytometry using FACS caliber flow cytometer and apoptosis detection kit (BD Biosciences, San Jose, CA)

HCT-116 cells [2] = assay: Cell cycle analysis by PI staining and flow cytometry; type: cell-based, human; settings: 48 h
Procedure: Numerous anti-proliferative agents produce their effect by either arresting the cell growth at a particular point of the cell cycle or the induction of apoptosis, or by a combined effect. Taking compound 7 as a representative example of the tested compounds, its effect on the cell-cycle arrest of the HCT-116 cells for 48 h was evaluated by flow cytometry assay using the untreated HCT-116 as a control.
Cell cycle analysis was performed using propidium iodide (PI) staining and flow cytometry analysis for compound 7 as described in Supplementary data[44]^,[45]. […]
5% CO2. Cells were washed twice with phosphate buffer saline, then the centrifugation of cell pellets had been completed, followed by preservation with ice-cold 70% ethanol for 15 min. Pellets were collected again and incubated with propidium iodide (PI) staining solution. After incubation for one hour at room temperature, it was analyzed by flowcytometry on an FC500 cytometer (Beckman Coulter) and the cell cycle distributions were calculated. […]

T1 sequence (P35968 20-1356): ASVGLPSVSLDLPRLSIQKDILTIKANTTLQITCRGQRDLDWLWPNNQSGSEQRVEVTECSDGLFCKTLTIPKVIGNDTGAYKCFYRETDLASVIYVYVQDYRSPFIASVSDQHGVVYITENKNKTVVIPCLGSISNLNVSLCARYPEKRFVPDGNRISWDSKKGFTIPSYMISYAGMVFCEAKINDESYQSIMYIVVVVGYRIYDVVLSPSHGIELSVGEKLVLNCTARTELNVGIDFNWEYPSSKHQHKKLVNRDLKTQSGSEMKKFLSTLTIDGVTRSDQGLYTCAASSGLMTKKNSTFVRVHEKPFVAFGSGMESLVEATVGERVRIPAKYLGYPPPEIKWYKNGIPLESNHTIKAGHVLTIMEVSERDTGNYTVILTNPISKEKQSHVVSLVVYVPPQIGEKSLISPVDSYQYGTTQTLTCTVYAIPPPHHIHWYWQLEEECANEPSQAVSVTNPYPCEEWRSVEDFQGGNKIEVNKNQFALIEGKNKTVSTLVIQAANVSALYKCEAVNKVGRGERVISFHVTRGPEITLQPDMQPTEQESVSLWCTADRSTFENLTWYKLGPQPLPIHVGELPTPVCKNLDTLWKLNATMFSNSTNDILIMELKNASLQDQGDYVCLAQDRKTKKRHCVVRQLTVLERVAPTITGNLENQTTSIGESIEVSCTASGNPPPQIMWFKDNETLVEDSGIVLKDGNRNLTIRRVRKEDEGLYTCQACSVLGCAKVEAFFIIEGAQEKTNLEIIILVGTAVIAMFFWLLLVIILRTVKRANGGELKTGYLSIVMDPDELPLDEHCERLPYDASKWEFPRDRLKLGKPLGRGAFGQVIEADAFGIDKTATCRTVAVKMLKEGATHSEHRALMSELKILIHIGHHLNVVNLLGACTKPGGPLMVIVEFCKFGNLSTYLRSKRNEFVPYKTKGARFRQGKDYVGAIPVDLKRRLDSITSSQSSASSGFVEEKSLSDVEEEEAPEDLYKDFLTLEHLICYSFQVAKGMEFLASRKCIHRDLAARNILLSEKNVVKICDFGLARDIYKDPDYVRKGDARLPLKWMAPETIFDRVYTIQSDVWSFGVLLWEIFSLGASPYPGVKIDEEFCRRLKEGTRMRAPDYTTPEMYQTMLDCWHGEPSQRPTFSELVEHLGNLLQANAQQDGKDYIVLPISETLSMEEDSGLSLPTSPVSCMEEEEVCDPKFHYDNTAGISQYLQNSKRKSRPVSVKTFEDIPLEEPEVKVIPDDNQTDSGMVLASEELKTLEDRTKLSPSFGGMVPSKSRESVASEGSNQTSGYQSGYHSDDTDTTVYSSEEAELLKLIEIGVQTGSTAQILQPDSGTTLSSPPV

Question: How did the IC50 (HCT-116) turn out when `CNC(=O)c1cc(Oc2ccc(NC(=O)Nc3ccc(Cl)c(C(F)(F)F)c3)cc2)ccn1` [Sorafenib, reference compound] was run?
Answer: 9.3 ± 0.201 µM

Question: What about the IC50 (HepG-2) of the same compound?
Answer: 7.4 ± 0.253 µM

Question: Which results are given for `C[C@@H]1C[C@H]2[C@@H]3CCC4=CC(=O)C=C[C@]4(C)[C@@]3(F)[C@@H](O)C[C@]2(C)[C@@]1(O)C(=O)CO` [Dexamethasone, reference compound]?
Answer: TNF-α (% inhibition) (TNF-α): 82.47%; TNF-α (% inhibition) (TNF-α; listed as dexamethasone): 82.4%; IL-6 (% inhibition) (IL-6): 93.15%; IL-6 (% inhibition) (IL-6; listed as dexamethasone): 93.1%

Question: How did the IC50 (human VEGFR-2) turn out when `C/C(=N\NC(=O)c1ccccc1Cl)c1ccc(NC(=O)c2cccnc2)cc1` [Compound 10] was run?
Answer: 0.145 µM

Question: Which results are given for `COc1cc(/C=N/NC(=O)c2ccc(NC(=O)c3cccnc3)cc2)cc(OC)c1OC` [Compound 7, (E)-N-(4–(2-(3,4,5-Trimethoxybenzylidene)hydrazine-1-carbonyl)phenyl) nicotinamide]?
Answer: Apoptosis Early (HCT-116 cells [1]): 2.75%; Apoptosis Late (HCT-116 cells [1]): 11.26%; Apoptosis Total (HCT-116 cells [1]): 15.74%; Increase in early-phase apoptotic cells versus control (HCT-116 cells [1]): 4 fold; Increase in late-phase apoptotic cells versus control (HCT-116 cells [1]): 6.5 folds; Necrosis (HCT-116 cells [1]): 1.73%; Total apoptosis induction versus control (HCT-116 cells [1]): 5 folds; IC50 (HCT-116): 15.7 ± 0.058 µM; IC50 (HepG-2): 15.5 ± 0.055 µM; Cell cycle distribution (%) % S (HCT-116 cells [2]): 26.92%; Cell cycle distribution (%) %G0-G1 (HCT-116 cells [2]): 41.92%; Cell cycle distribution (%) %G2-M (HCT-116 cells [2]): 31.16%; Cell cycle distribution (%) %Pre-G1 (HCT-116 cells [2]): 15.74%; IC50 (human VEGFR-2): 0.25 µM

Question: `O=C(N/N=C/c1cccc([N+](=O)[O-])c1)c1ccc(NC(=O)c2cccnc2)cc1` [Compound 6, (E)-N-(4–(2-(3-Nitrobenzylidene)hydrazine-1-carbonyl)phenyl)nicotinamide] was tested. Which IC50 (HCT-116) did it give?
Answer: 22.09 ± 0.064 µM

Question: And the IC50 (HepG-2)?
Answer: 19.5 ± 0.063 µM

Question: And the IC50 (human VEGFR-2)?
Answer: 0.292 µM

Question: With `CC(=O)Nc1ccc(C(=O)N/N=C(\C)c2ccc(NC(=O)c3cccnc3)cc2)cc1` [Compound 11, (E)-N-(4–(1-(2–(4-Acetamidobenzoyl)hydrazono)ethyl)phenyl)nicotinamide] as the compound, how does the IC50 (HCT-116) read?
Answer: 20.17 ± 0.063 µM

Question: And the IC50 (HepG-2)?
Answer: 21.6 ± 0.07 µM

Question: And the IC50 (human VEGFR-2)?
Answer: 0.0866 µM
